The text below walks through data of patent publication US11771772B2, “Glycemic control using intrinsic factor bound to a vitamin B12 conjugate of a glucagon-like peptide-1 receptor agonist” (Syracuse University, priority 2015, dated 2023).

pKd: −log10 of the molar value. Where two headings read alike, the source gives them in different places.

For assay [1], the target named is T1, Intrinsic factor (Homo sapiens, UniProt P27352).
T1 construct: purchased Xeragenx LLC XGX-003; host or cells: Arabidopsis (transgenic plant)
T1 sequence (P27352 19-417): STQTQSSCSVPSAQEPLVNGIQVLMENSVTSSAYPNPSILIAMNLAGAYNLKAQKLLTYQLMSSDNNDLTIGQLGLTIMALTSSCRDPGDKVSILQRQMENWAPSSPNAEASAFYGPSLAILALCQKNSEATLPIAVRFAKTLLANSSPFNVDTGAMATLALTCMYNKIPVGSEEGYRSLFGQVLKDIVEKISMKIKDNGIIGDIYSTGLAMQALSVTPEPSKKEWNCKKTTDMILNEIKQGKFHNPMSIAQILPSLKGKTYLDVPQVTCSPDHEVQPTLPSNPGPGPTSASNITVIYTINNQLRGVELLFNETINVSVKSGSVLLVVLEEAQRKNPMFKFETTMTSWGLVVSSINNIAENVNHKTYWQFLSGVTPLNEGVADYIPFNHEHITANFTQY
Description: IF binding, chase experiment with 57Co radiolabeled B12. The following applies: read-out: binding affinity to IF.
Description: Peptides were purchased through CSBio (Menlo Park, Calif.) and all materials were purchased through Sigma-Aldrich unless stated otherwise. Apo-IF was supplied by Xeragenx LLC (cat no: XGX-003). […] IF used in these assays was produced in the plant Arabidopsis in the apo-form and of high purity

For assay [2], the target named is T1, Intrinsic factor. To be noted: general statement in description; read-out: IF binding affinity (Kd); cited from earlier work.

Take cyanocobalamin [Compound B12]: the pKd on Intrinsic factor [1] is 9.92; on Intrinsic factor [2] it was around 12.00.
